Source: article PMC10755736, “Modulating Liquid–Liquid Phase Separation of Nck Adaptor Protein against Enteropathogenic Escherichia coli Infection” (ACS Central Science, 2023)
Entries after “also recorded” stand apart in the source; their conditions may differ. Non-standard residues stand in square brackets, D forms with d. Residues, ends and D or L forms follow the SMILES beside them. *: point of attachment. Biotin = O=C1N[C@H]2[C@H](CS[C@H]2CCCCC(=O)*)N1; Benzoyl(4-SO2F) = O=C(c1ccc(S(=O)(=O)F)cc1)*; pY = N[C@@H](Cc1ccc(OP(=O)(O)O)cc1)C(=O)O; Dap = NC[C@H](N)C(=O)O

What was measured:
[1] = tested on: EPEC infection of Caco-2 cells; test: EPEC infection assay of Caco-2 cells (CFU counts); format: cell-based, enteropathogenic Escherichia coli; conditions: L17E 40 μM
Experimental: Lastly, to examine whether pretreatment of Caco-2 cells with L17E/p1 could prevent EPEC infection, we first established a bacterial infection assay (Figure 7a). Caco-2 cells were pretreated with L17E/p1 for 2 h. After excess peptides were removed, Caco-2 cells were then infected with EPEC at different multiplicity of infection (MOI) values (MOI is commonly defined as the ratio of infectious bacteria to cells in a culture) for 3 h, and extra bacterial cells were removed from the culture. Next, gentamicin was added to the cell culture to remove EPEC that are merely attached to the surface of Caco-2 cells, leaving only engulfed EPEC inside Caco2 cells to be counted (gentamicin treatment will not kill intracellular bacteria due to its cellular impermeability). After gentamicin was washed away, cells were lysed to release EPEC cells inside, and the cell lysates were diluted to count the number of EPEC cells as colony-forming units (cfu) on agar plates.
(§1) Caco-2 cells were seeded in a 24-well plate at a density of 1×10^4 cells for 24 h and pretreated with peptide complexes for 2 h. After washing with DMEM, cells were infected with EPEC at selected MOI values for 3 h at 37 ℃. Cells were then treated with gentamicin ([…]) for 2 h and lysed with 1% […]
Triton X-100 for 15 min. […]
The sample was loaded onto 12% SDS/PAGE glycerol gel and then transferred onto a PVDF membrane using Bio-Rad […]. The membrane was blocked and incubated with a rabbit anti-Nck antibody (Abcam, Hong Kong) at 4 °C overnight, followed by a n anti -rabbit HRP -labeled secondary antibody (Abcam, Hong Kong).
SPSS 23.0 statistical software was used to process experimental data. The differences between mean ± SEM of three independent experiments were assessed by Student's t -test.

[2] = molecular target: T1, Nck/N-WASP/3pY (Homo sapiens, UniProt P16333); test: Disruption of Nck/N-WASP/3pY droplets by pY peptides (microscopy); format: biochemical; conditions: peptide 12.5, 25, 50, 100 µM; 0, 10, 30 min; Nck 80 μM, N-WASP 15 μM, 3pY 10 μM; confocal
T1 construct: GST (followed by PreScission/HRV 3C site) (N, cleaved yes); made in house; host or cells: E. coli BL21(DE3)
Experimental: Next, we explored the intervention of Nck/N-WASP/3pY LLPS using pY peptides (Figure 3a). Three pY-containing peptides extracted from different Tir sequences were synthesized, namely, peptides Y474, Y751, and Y147 (Figure 3b).
Figure 3 pY peptides disrupt Nck/N-WASP/3pY LLPS. (a) Sequences of synthetic pY peptides. […] Nck: 20 μM; N-WASP: 10 μM; 3pY: 10 μM. Scale bars, 20 μm. (c) Peptide Y474 rapidly decreases the turbidity of the Nck/N-WASP/3pY solution in around 20 min. Nck: 20 μM, N-WASP: 10 μM, 3pY: 10 μM. […] Nck: 20 μM, N-WASP: 10 μM, 3pY: 10 μM. […]
peptide 0 min 10 min 30 min
Peptides p1 with different concentrations were added to decrease the droplet formation of the Nck/N-WASP/3pY solution and droplet disassembles were observed under confocal microscopy at different times (0 min, 10 min and 30 min). Nck: 80 μM, N-WASP: 15 μM, 3pY: 10 μM. […]
Figure S13. […] Peptides Y474 with […]
different concentrations were added to decrease the droplet formation of the Nck/N-WASP/3pY solution and droplet disassembles were observed under confocal microscopy at different times (0 min, 10 min and 30 min). Nck: 80 μM, N-WASP: 15 μM, 3pY: 10 μM.

[3] = tested on: Nck in Caco-2 cells; test: In cell reaction of p1 with endogenous Nck (Western blot); format: cell-based; conditions: L17E and p1 (printed 40 mM and 10 mM) overnight; anti-Nck Western blot
Experimental: as §1, with “1% Triton X-100 for 15 min. The lysates were diluted 100 or 1000 folds to be spread on LB agar plates” for “1%”
Immunofluorescence Confocal Microscopy
Infected cells were fixed with 4% PFA and treated with 0.1% Triton X-100 for 10 min. And then the samples were blocked with 3% BSA for 1 h, incubated with anti-Tir antibody (Abbexa, C ambridge, UK) at 1:200 at 4℃ over night and followed by incubation with Alexa Fluo 488 goat anti -rabbit IgG secondary antibody at room temperature for 2 h. Cells were treated with DAPI (Invitrogen) for 10 min, then stained with phalloidin (Alexa Fluor 594 -conjugated phalloidin, Invitrogen) for 1 h and imaged by a confocal fluorescent microscope (SP8, Leica).
Caco -2 cells were treated with peptides overnight and lysed via RIPA buffer containing protease inhibitors for 15 min at 4℃. […]
SPSS 23.0 statistical software was used to process experimental data. The differences between mean ± SEM of three independent experiments were assessed by Student's t -test. […]

[4] = molecular target: T2, Nck (Homo sapiens, UniProt P16333); test: Reaction of peptides with Nck in Caco-2 cell lysate (Western blotting); format: binding; conditions: lysate of Caco-2 cells (5 µg/µl) overexpressing Nck; peptide 10 µM, 37 °C, 60 min; anti-Nck Western blot
T2 construct: GST (followed by PreScission/HRV 3C site) (N, cleaved yes); made in house; host or cells: E. coli BL21(DE3)
Experimental: In addition, we performed the reaction between p1 and Nck in a cell lysate, representing a complex solution. We incubated peptide p1 with the lysate of Caco-2 cells overexpressing Nck, and the reaction mixture was resolved on SDS-PAGE and analyzed with Western blotting against an anti-Nck antibody. […] Next, we incubated biotinylated peptide Y474 and Nck solutions with or without p1 peptide, and pulled down proteins that bound with biotinylated Y474.
Figure S7. Reaction of p1 in cell lysate. Biotinylated p1 peptide (10 µM) was incubated with the
lysate of Caco-2 cells (5 µg/µl)to react at 37 °C for 60 min before the mixture was resolved on SDS-
PAGE. Western blotting experiments using an anti-biotin antibody and an anti-Nck antibody, […]

With CC[C@H](C)[C@H](NC(=O)[C@H](Cc1c[nH]cn1)NC(=O)[C@H](CCC(=O)O)NC(=O)[C@H](CCC(=O)O)NC(=O)CCCC[C@@H]1SC[C@@H]2NC(=O)N[C@@H]21)C(=O)N[C@@H](Cc1ccc(OP(=O)(O)O)cc1)C(=O)N[C@@H](CNC(=O)c1ccc(S(=O)(=O)F)cc1)C(=O)N[C@@H](CCC(=O)O)C(=O)N[C@H](C(=O)N[C@@H](C)C(=O)N[C@@H](C)C(=O)N[C@@H](CC(=O)O)C(N)=O)C(C)C [p1] (Biotin-EEHI[pY][Dap](Benzoyl(4-SO2F))EVAAD-NH2; N-terminus and C-terminus assumed) the “efficacy compared with Y474 in anti-infection assay” value ([1]; p1 vs Y474 at lower concentrations) was “significantly higher efficacy than Y474 at lower concentrations”, the “blockage of EPEC invasion/infection of Caco-2 cells” value ([1]; with L17E-mediated delivery) was “rendered Caco-2 cells resistant to EPEC infection; also recorded: can block EPEC invasion to Caco-2 cells” and the “reversal of Nck/N-WASP/3pY phase separation (droplet disassembly)” value [2] was “reverses the phase separation; also recorded: disintegrate phase-separated Nck droplets”. For the same molecule, the “reaction with endogenous Nck in cytosol” value [3] was “reacted with the endogenous Nck in the cytosol of Caco-2 cells” and the “Nck band shift in cell lysate” value [4] was “complete band shift”.
